By IC50 is commonly meant the midpoint of a concentration-inhibition curve.

The record followed here is patent publication US20230140276A1, “TRICYCLIC COMPOUNDS, PREPARATION METHOD AND MEDICAL USE THEREOF” (HEFEI INSTITUTE OF PHARMACEUTICAL INDUSTRY CO., LTD., priority 2020, published 2023).

Series [1] relates to pilocarpine-induced saliva secretion. Nature of the series: Pilocarpine-induced salivation in rats. Conditions: for saliva secretion compared with the model group: 10 mg/kg intragastric administration; for Inhibition rate (%): 10 mg/kg intragastric, pilocarpine 1 mg/kg i.p. 15 minutes later, saliva collected 10 minutes.
Procedure: Rats in each group were given corresponding drugs by intragastric administration. 15 minutes later, pilocarpine (1 mg/kg, dissolved in physiological saline) was injected intraperitoneally to induce saliva secretion. The rat was immediately anesthetized by intraperitoneal injection of 10% chloral hydrate. After the rat was anesthetized, the residual saliva in the oral cavity was taken out with a cotton ball in that the weighed cotton ball (M1) was placed in the oral cavity (two under the tongue and one for each on both sides). The cotton ball was taken out 10 minutes later and the weight of the cotton ball (M2) was immediately measured.
Inhibition rate=Saliva secretion in drug administration group/Saliva secretion in model group×100%
Series [2] deals with histamine-induced skin vascular permeability. Kind of series: Inhibitory effect on histamine-induced vascular permeability in mice. The format is in vivo, ICR mice. Conditions: Mus musculus, po; 5 mg/kg intragastric 1 hour before modeling; histamine phosphate 1 ug/0.1 mL; Evans Blue absorbance at 610 nm; read-out: Inhibition rate (%). As to the method: Intragastric administration was performed 1 hour before modeling. The model group was given the corresponding solvent. […] 10% sodium sulfide was used to depilate the back of mice (3 cm×3 cm). The mice were injected 1 ug/0.1 mL of histamine phosphate physiological saline solution into the depilation site one hour after the administration, and injected 0.25% Evans Blue solution 4 ml/kg from the tail vein immediately after the injection. After 30 minutes, the mice were dislocated and sacrificed. The blue-stained part of the skin was removed and perforated (diameter 15 mm), cut into pieces and soaked in 1 ml of acetone-saline (7:3) solution. After 24 h, it was centrifuged (3000 r/min, 10 min) to take the supernatant. The absorbance of the sample was measured with an ultraviolet spectrophotometer at a wavelength of 610 nm and a blank zero calibration with acetone-physiological saline solution.

The target in another series is hERG potassium channel (Homo sapiens, UniProt Q12809). Nature of the series: hERG potassium channel activity test. The format is biochemical. For orientation: The hERG channel carries a current that helps repolarise heart muscle cells.
hERG potassium channel, sequence (Q12809 whole entry): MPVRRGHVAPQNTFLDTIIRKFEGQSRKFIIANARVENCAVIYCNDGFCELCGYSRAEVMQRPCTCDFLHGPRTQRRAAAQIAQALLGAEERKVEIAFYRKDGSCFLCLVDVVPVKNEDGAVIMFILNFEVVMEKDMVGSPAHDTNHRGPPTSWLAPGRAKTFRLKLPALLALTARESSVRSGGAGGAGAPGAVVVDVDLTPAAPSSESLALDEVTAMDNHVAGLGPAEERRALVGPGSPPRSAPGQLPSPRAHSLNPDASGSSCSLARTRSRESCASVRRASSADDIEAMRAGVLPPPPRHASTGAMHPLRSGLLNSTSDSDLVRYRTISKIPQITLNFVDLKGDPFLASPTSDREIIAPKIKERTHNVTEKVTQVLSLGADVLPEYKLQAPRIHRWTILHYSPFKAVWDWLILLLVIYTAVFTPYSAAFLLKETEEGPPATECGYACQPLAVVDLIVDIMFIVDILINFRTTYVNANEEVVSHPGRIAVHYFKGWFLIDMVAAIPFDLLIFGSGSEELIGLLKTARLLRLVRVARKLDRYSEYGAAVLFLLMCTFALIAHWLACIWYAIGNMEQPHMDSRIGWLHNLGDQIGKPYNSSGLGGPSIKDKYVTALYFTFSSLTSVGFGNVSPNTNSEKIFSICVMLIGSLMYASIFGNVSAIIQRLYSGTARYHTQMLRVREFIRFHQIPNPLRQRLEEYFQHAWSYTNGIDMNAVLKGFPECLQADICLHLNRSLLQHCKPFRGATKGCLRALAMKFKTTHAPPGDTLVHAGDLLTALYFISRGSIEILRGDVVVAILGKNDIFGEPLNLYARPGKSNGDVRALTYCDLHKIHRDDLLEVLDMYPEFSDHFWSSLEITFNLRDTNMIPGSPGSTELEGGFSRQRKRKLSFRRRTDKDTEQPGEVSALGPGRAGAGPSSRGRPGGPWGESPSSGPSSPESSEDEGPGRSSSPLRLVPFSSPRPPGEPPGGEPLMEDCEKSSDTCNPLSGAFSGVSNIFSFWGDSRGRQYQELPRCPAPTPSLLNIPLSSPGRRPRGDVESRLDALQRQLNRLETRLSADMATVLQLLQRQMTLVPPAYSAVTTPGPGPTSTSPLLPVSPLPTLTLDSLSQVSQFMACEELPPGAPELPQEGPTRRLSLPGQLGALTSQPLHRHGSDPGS

`Cc1ccc2c(c1)CCc1cccnc1C2=C1CCN(CCCc2ccc(C(=O)O)cc2)CC1` [Compound 1, reference compound]: in series [1], the “saliva secretion compared with the model group” value is given as “decreased” and the “Inhibition rate (%)” value turned out to be 84.30%. Also, the inhibition in vivo at 5 mg/kg in series [2] was 36.1%. Moreover, at hERG potassium channel, half-maximal inhibition (IC50) was put at 2.03 µM.

In the case of `COc1ccccc1OCC(O)CN1CCC(=C2c3ccc(Cl)cc3CCc3cccnc32)CC1` (stereo not shown) [Compound LHC-7, reference compound], the “Inhibition rate (%)” value in series [1] stood at 95.60%. The inhibition in vivo at 5 mg/kg in series [2] is 53.2%. On hERG potassium channel, this compound yielded an IC50 of 0.248 µM.

For the compound `Cc1nc(C)c(CN2CCC(=C3c4ccc(Cl)cc4CCc4cccnc43)CC2)nc1C` [Compound LP-2, reference compound], in series [1], the “saliva secretion compared with the model group” value is reported as “decreased” and the “Inhibition rate (%)” value was 98.40%. Further, the inhibition in vivo at 5 mg/kg in series [2] amounted to 54.1%. The compound further displayed an IC50 against hERG potassium channel of 4.03 µM.

Take `CC(C)(C(=O)O)c1ccc(CN2CCC(=C3c4ccc(Cl)cc4CCc4cccnc43)CC2)cc1` [Example 1, 2-(4-((4-(8-chloro-5,6-dihydro-11H-benzo[5,6]cyclohept[1,2-b]pyridine-11-enyl)piperidine-1-yl)methyl)phenyl)-2-methylpropionic acid]: the “Inhibition rate (%)” value in series [1] is 18.53%. Also, the inhibition in vivo at 5 mg/kg in series [2] was found to be 52.2%. This compound returned an IC50 at hERG potassium channel above 30 µM.

As to `CC(C)(C(=O)O)c1ccc(CCCN2CCC(=C3c4ccc(Cl)cc4CCc4cccnc43)CC2)cc1` [Example 3, 2-(4-(3-(4-(8-chloro-5,6-dihydro-11H-benzo[5,6]cyclohept[1,2-b]pyridine-11-enyl)piperidine-1-yl)propyl)phenyl)-2-methylpropionic acid], the “Inhibition rate (%)” value in series [1] is 7.02%. Moreover, the inhibition in vivo at 5 mg/kg in series [2] was found to be 41.7%. The same compound yielded an IC50 on hERG potassium channel above 30 µM.

For `CC(C)(C(=O)O)c1ccc(CCCN2CCC(=C3c4ccc(Cl)cc4CCc4cccnc43)CC2)c(C#N)c1` [Example 4, 2-(4-(3-(4-(8-chloro-5,6-dihydro-11H-benzo[5,6]cyclohepta[1,2-b]pyridine-11-ylidene)piperidine-1-yl)propyl)-3-cyano)-2-methylpropionic acid], the “Inhibition rate (%)” value in series [1] worked out at 8.72%. The inhibition in vivo at 5 mg/kg in series [2] stood at 65.4%. Moreover, the IC50 on hERG potassium channel is above 30 µM.

Regarding `CC(C)(C(=O)O)c1ccc(CCCN2CCC(=C3c4ccc(Cl)cc4CCc4cccnc43)CC2)c(OC(F)(F)F)c1` [Example 7, 2-(4-(3-(4-(8-chloro-5,6-dihydro-11H-benzo[5,6]cyclohepta[1,2-b]pyridine-11-enyl)piperidine-1-yl)propyl)-3-(trifluoromethoxy)phenyl)-2-methylpropionic acid], the “Inhibition rate (%)” value in series [1] was 4.65%. Besides, the inhibition in vivo at 5 mg/kg in series [2] was found to be 42.6%. Also, the IC50 against hERG potassium channel was above 30 µM.

With `CC(C)(C(=O)O)c1ccc(CCCN2CCC(=C3c4ccc(Cl)cc4CCc4cccnc43)CC2)c(F)c1` [Example 8, 2-(4-(3-(4-(8-chloro-5,6-dihydro-11H-benzo[5,6]cyclohepta[1,2-b]pyridine-11-enyl)piperidine-1-yl)propyl)-3-fluorophenyl)-2-methylpropionic acid], in series [1], the “Inhibition rate (%)” value is on record as 8.23%. Besides, the inhibition in vivo at 5 mg/kg in series [2] amounted to 34.9%. Also, the IC50 against hERG potassium channel was above 30 µM.

For `Cc1cc(CCCN2CCC(=C3c4ccc(Cl)cc4CCc4cccnc43)CC2)ccc1C(C)(C)C(=O)O` [Example 11, 2-(4-(3-(4-(8-chloro-5,6-dihydro-11H-benzo[5,6]cyclohepta[1,2-b]pyridine-11-enyl)piperidine-1-yl)propyl)-2-methylphenyl)-2-methylpropionic acid], the “Inhibition rate (%)” value in series [1] is 5.20%. In series [2], the inhibition in vivo at 5 mg/kg was found to be 36.9%. Further, on hERG potassium channel, the IC50 was above 30 µM.

Regarding `CC(C)(C(=O)O)c1ccc(CCCN2CCC(=C3c4ccc(Cl)cc4CCc4cccnc43)CC2)cc1[N+](=O)[O-]` [Example 17, 2-(4-(3-(4-(8-chloro-5,6-dihydro-11H-benzo[5,6]cyclohepta[1,2-b]pyridine-11-enyl)piperidine-1-yl)propyl)-3-nitrophenyl)-2-methylpropionic acid], the “Inhibition rate (%)” value in series [1] is reported as 6.54%. Also, the inhibition in vivo at 5 mg/kg in series [2] is 49.2%.

In the case of `CC(C)(C(=O)O)c1ccc(CCCN2CCC(=C3c4ccc(Cl)cc4CC(O)c4cccnc43)CC2)cc1` (stereo not shown) [Example 18], in series [1], the “Inhibition rate (%)” value came out at 12.50%. The inhibition in vivo at 5 mg/kg in series [2] was 46.6%.

As to `CC(C)(C(=O)O)c1ccc(CCCN2CCC(=C3c4ccc(Cl)cc4C(O)Cc4cccnc43)CC2)cc1` (stereo not shown) [Example 19], the “Inhibition rate (%)” value in series [1] is recorded as 11.83%. In series [2], the inhibition in vivo at 5 mg/kg was 53.3%.

Regarding `CC(C)(C(=O)O)c1ccc(CCCN2CCC(=C3c4ccc(Cl)cc4CCc4cc(O)cnc43)CC2)cc1` [Example 20], the “Inhibition rate (%)” value in series [1] is listed as 7.65%. Besides, the inhibition in vivo at 5 mg/kg in series [2] was found to be 58%.

As to `CC(C)(C(=O)O)c1ccc(CCCN2CCC(=C3c4ccccc4CCc4cc(Cl)ccc43)CC2)cc1` [Example 21, 2-(4-(3-(4-(2-chloro-10,11-dihydro-5H-dibenzo[a,d][7]cycloheptenyl-naphthylene)piperidine-1-yl)propyl)phenyl)-2-methylpropionic acid], the “Inhibition rate (%)” value in series [1] is recorded as 16.54%. For the same compound, the inhibition in vivo at 5 mg/kg in series [2] amounted to 42.6%. Besides, on hERG potassium channel, the IC50 is above 30 µM.

For the compound `CC(C)(C(=O)O)c1ccc(CCCN2CCC(=C3c4ccccc4CC(=O)c4sccc43)CC2)cc1` [Example 22, 2-Methyl-2-(4-(3-(4-(10-oxo-9,10-dihydro-4H-benzo[4,5]cyclohepta[1,2-b]thiophene-4-alkylene)piperidin 1-yl)propyl)phenyl) propionic acid], the “Inhibition rate (%)” value in series [1] is listed as 18.43%. The inhibition in vivo at 5 mg/kg in series [2] was found to be 63.3%.

As for `CC(C)(C(=O)O)c1ccc(CCCN2CCC(=C3c4ccccc4CC(O)c4sccc43)CC2)cc1` (stereo not shown) [Example 23, 2-(4-(3-(4-(10-hydroxy-9,10-dihydro-4H-benzo[4,5]cyclohept[1,2-b]thiophen-4-alkylene)piperidin-1-yl)propyl)phenyl)-2-methylpropionic acid], the “Inhibition rate (%)” value in series [1] is given as 8.54%. Also, the inhibition in vivo at 5 mg/kg in series [2] amounted to 66.7%.

As for `CC(C)(C(=O)O)c1ccc(CCCCN2CCC(=C3c4ccc(Cl)cc4CCc4cccnc43)CC2)cc1` [Example 24], in series [1], the “Inhibition rate (%)” value came out at 10.32%. Besides, the inhibition in vivo at 5 mg/kg in series [2] is 47.6%.

As for `CC(C)(C(=O)O)c1cccc(CCCN2CCC(=C3c4ccc(Cl)cc4CCc4cccnc43)CC2)c1` [Example 25, 2-(3-(3-(4-(8-chloro-5,6-dihydro-11H-benzo [5,6]cyclohepta [1,2-b]pyridine-11-enyl)piperidine-1-yl)propyl)phenyl)-2-methylpropionic acid], the “Inhibition rate (%)” value in series [1] is reported as 9.68%. For the same compound, the inhibition in vivo at 5 mg/kg in series [2] is 66.8%.

Turning to `CC(C)(C(=O)O)c1ccc(C#N)c(CCCN2CCC(=C3c4ccc(Cl)cc4CCc4cccnc43)CC2)c1` [Example 26], the “Inhibition rate (%)” value in series [1] worked out at 13.28%. Also, the inhibition in vivo at 5 mg/kg in series [2] worked out at 68.2%. The IC50 against hERG potassium channel was above 30 µM.

Take `CC(C)(C(=O)O)c1cccc(CCCN2CCC(=C3c4ccccc4CC(O)c4sccc43)CC2)c1` (stereo not shown) [Example 27, 2-(3-(3-(4-(10-hydroxy-9,10-dihydro-4H-benzo[4,5]cyclohepta[1,2-b]thiophene-4-alkylene)piperidin-1-yl)propyl)phenyl)-2-methylpropionic acid]: the “Inhibition rate (%)” value in series [1] came out at 5.48%. Also, in series [2], the inhibition in vivo at 5 mg/kg worked out at 48.8%.

Turning to `CC(C)(C(=O)O)c1ccccc1CCCN1CCC(=C2c3ccc(Cl)cc3CCc3cccnc32)CC1` [Example 28, 2-(2-(3-(4-(8-chloro-5,6-dihydro-11H-benzo[5,6]cyclohepta[1,2-b]pyridine-11-enyl)piperidine-1-yl)propyl)phenyl)-2-methylpropionic acid], in series [1], the “Inhibition rate (%)” value is 19.65%. The inhibition in vivo at 5 mg/kg in series [2] was 43.8%.

Take `CC(C)(C(=O)O)c1ccc(C(O)CCCN2CCC(=C3c4ccc(Cl)cc4CCc4cccnc43)CC2)cc1` (stereo not shown) [Example 29]: the “Inhibition rate (%)” value in series [1] was determined as 11.28%. Also, the inhibition in vivo at 5 mg/kg in series [2] came out at 64.3%. Further, at hERG potassium channel, the IC50 is above 30 µM.

In the case of `CC(C)(C(=O)O)c1cccc(C(O)CCCN2CCC(=C3c4ccc(Cl)cc4CCc4cccnc43)CC2)c1` (stereo not shown) [Example 30, 2-(3-(4-(4-(8-chloro-5,6-dihydro-11H-benzo[5,6]cyclohepta[1,2-b]pyridine-11-enyl)piperidine-1-yl)-1-hydroxybutyl)phenyl)-2-methylpropionic acid], the “Inhibition rate (%)” value in series [1] is recorded as 6.74%. Besides, the inhibition in vivo at 5 mg/kg in series [2] is 52.2%.

With `CC(C)(C(=O)O)c1cccc(C(O)CCN2CCC(=C3c4ccc(Cl)cc4CCc4cccnc43)CC2)c1` (stereo not shown) [Example 31, 2-(3-(3-(4-(8-chloro-5,6-dihydro-11H-benzo[5,6]cyclohepta[1,2-b]pyridine-11-enyl)piperidine-1-yl)-1-hydroxypropyl)phenyl)-2-methylpropionic acid], in series [1], the “Inhibition rate (%)” value stood at 13.25%. Besides, in series [2], the inhibition in vivo at 5 mg/kg was 48%.

Turning to `CC(C)(C(=O)[O-])c1ccc(CCN2CCC(=C3c4ccc(Cl)cc4CCc4cccnc43)CC2)cc1.[Na+]` [Example 32], the “Inhibition rate (%)” value in series [1] is listed as 18.93%. The IC50 against hERG potassium channel was above 30 µM.
